# Results taken from paper PMC12977544, “Phenotypic high-throughput screening identifies modulators of gut microbial choline metabolism” (mBio, 2026).
# Where two headings read alike, the source gives them in different places.
# Tests used:
# Test in all cases: TMA inhibition in bacterial whole cells (LC–MS/MS of d9-TMA from d9-choline)
# [1] = system: Proteus mirabilis ATCC 29906; assay type: cell-based; conditions: 1 mM d9-choline in PBS, 90 min, 37°C, anaerobic; for EC50: read-out: EC50 in whole cells, P. mirabilis (TMA inhibition)
# Experimental: (§1) For TMA inhibition assays, E. coli and P. mirabilis were grown in NCE medium supplemented with 20 mM choline chloride, A. hydrogenalis was grown in MEGA medium supplemented with 3 mM choline chloride, and C. sporogenes was grown in BHI medium supplemented with 20 mM of choline chloride to induce expression of the cut gene cluster. For MIC assays, all bacteria strains were grown in MEGA medium.
# (§2) Compounds were stored as 10 mM DMSO stocks at –20°C and diluted in DMSO to prepare varying concentrations of inhibitors for testing. Bacteria were grown anaerobically overnight in media supplemented with choline as described above. Cells were pelleted and resuspended in PBS, and d9-choline chloride was added to a final concentration of 1 mM. The final OD600 of the PBS cell resuspensions is as follows: 0.4 (E. coli), 0.15–0.2 (P. mirabilis), 0.2 (C. sporogenes), and 0.4 (A. hydrogenalis). The resuspended cells were added to 96-well plates containing inhibitors (final concentration of 1% DMSO, with final inhibitor concentrations ranging between 0 and 325 µM). The plates were sealed and incubated for 75 min (or 90 min for P. mirabilis) at 37°C. Following incubation, the plates were removed from the anaerobic chamber and analyzed immediately or kept at –20°C until LC–MS/MS analysis. Each inhibitor concentration was tested in triplicate. EC50 values were calculated with GraphPad Prism by fitting the log(inhibitor) vs response—Variable slope (four-parameter) model for non-linear regression.
# (§3) Samples were kept frozen until analysis and kept cold on ice during handling due to the volatility of TMA. Bacterial cell resuspensions in PBS were diluted 100-fold in LCMS-grade acetonitrile with 0.1% formic acid to lyse cells, precipitate proteins, and extract metabolites. Samples were centrifuged at 4,000 rpm for 10 min at 4°C to pellet proteins. The supernatants were then further diluted 20-fold in LCMS-grade acetonitrile with 0.1% formic acid, and the resulting solution was analyzed by LC–MS/MS.
# (§4) LC–MS/MS analysis was performed on an Agilent 1290/6470 Triple Quadrupole LC–MS instrument (Agilent Technologies) using electrospray ionization. The mass spectrometer was operated in multiple reaction monitoring (MRM) mode with positive ionization monitoring. The precursor–product ion pairs used in MRM mode were as follows: m/z 69.1m/z → 49.1 (d9-TMA) and m/z 113.2 m/z → 69.1 (d9-choline). The capillary voltage was set to 4.0 kV, and the fragmentor voltage was set to 30 V (d9-TMA) and 115 V (d9-choline). The collision energy for the precursor–product ion pairs was set to 29 V (d9-TMA) and 21 V (d9-choline). MS^1 resolution was set to wide and MS^2 resolution to unit. The drying gas temperature was maintained at 250°C, with a flow rate of 11 L/min and a nebulizer pressure of 45 psi. The time filter width used was 0.07 min. The injection volume of all samples was 1 μL. Samples were injected onto InfinityLab Poroshell 120 (Agilent) HILIC columns (2.7 μm, 100 mm × 2.1 mm, 100 Å) preceded by InfinityLab Poroshell 120 HILIC guard columns (2.1 mm, 1.9µm UHPLC guard). The LC conditions on the binary pump were as follows: a gradient of 5–35% A increasing over 1.95 min (1.2 mL/min), a gradient of 35–5% A decreasing over 0.05 min (1.6 mL/min), and held at 5% A for 0.5 min (2 mL/min). […] Solvent A was 10 mM ammonium formate with 0.1% formic acid, and solvent B was acetonitrile with 0.1% formic acid. Data analysis was performed with Mass Hunter Workstation Data Acquisition and Qualitative Analysis software (Agilent Technologies).
# [2] = system: Clostridium sporogenes ATCC 15579; assay type: cell-based; conditions: 1 mM d9-choline in PBS, 75 min, 37°C, anaerobic
# Experimental: as §1, §2, §3, §4
# E. coli MS 200-1 = assay type: cell-based, Escherichia coli MS 200-1
# Experimental: as §1, §2, §3, §4
# [3] = system: Anaerococcus hydrogenalis DSM 7454; assay type: cell-based; conditions: 1 mM d9-choline in PBS, 75 min, 37°C, anaerobic
# Experimental: as §1, §2, §3, §4
# [4] = 1 mM d9-choline in PBS, 75 min, 37°C, anaerobic
# [5] = Clostridium sporogenes, ATCC15579, 1.25 h
# [6] = Escherichia coli, MS2001, 1.25 h, 1 mM d9-choline in PBS, 75 min, 37°C, anaerobic
# [7] = Proteus mirabilis, ATCC29906, 1.5 h
# [8] = Anaerococcus hydrogenalis, DSM7454, 1.25 h
Compound,EC50 [1],EC50 [2],EC50 (E. coli MS 200-1; [4]),"EC50 [2, 5]",EC50 (E. coli MS 200-1; [6]),"EC50 [1, 7]",also measured
Cc1ccc(-c2ccc(C(=O)NCCCN3CCC(C)CC3)[nH]2)cc1C [Compound 10],63 µM,312 µM,98 µM,,,,
COCCNC(=O)c1cc(-c2ccc(C)c(C)c2)[nH]c1C [C00007],,,,,,,"EC50 in whole cells, C. sporogenes (TMA inhibition) [2]: No inhibition at 100; EC50 in whole cells, E. coli (TMA inhibition) (E. coli MS 200-1; [4]): No inhibition at 100"
Cc1ccc(-c2cc(C(=O)NCCCN3CCN(C)C(=O)C3)c(C)[nH]2)cc1C [C00013],,,,> 312 µM,> 125 µM,,"EC50 in whole cells, P. mirabilis (TMA inhibition) [1]: No inhibition at 312"
Cc1ccc(-c2cc(C(=O)NCCCN3CCC(C)CC3)c(C)n2C2CCCC2)cc1C [Compound 17],,8 µM,69 µM,,,,
Cc1ccc(-c2c[nH]c(C(=O)NCCCN3CCC(C)CC3)c2)cc1C [Compound 11],42 µM,> 312 µM,13 µM,,,,
Cc1ccc(-c2cc(C(=O)NCCCN3CCN(C)CC3)c(C)[nH]2)cc1C [C00012],,,,92 µM,14 µM,58 µM,"EC50 in whole cells, A. hydrogenalis (TMA inhibition) [3]: No inhibition at 312"
Cc1[nH]c(C2CCCCC2)cc1C(=O)NCCCN1CCC(C)CC1 [Compound 21],,8 µM,51 µM,,,,EC50 [3]: 32 µM
Cc1ccc(-c2cc(C(=O)NCCCN3CCCC3)c(C)[nH]2)cc1C [C00014],,,,78 µM,11 µM,104 µM,"EC50 [3, 8]: 83 µM"
Cc1ccc(-c2[nH]cc(C(=O)NCCCN3CCC(C)CC3)c2C)cc1C [Compound 8],131 µM,97 µM,> 125 µM,,,,Fold increase of EC50 in E. coli (E. coli MS 200-1; compared with compound 6): more than 10 fold
Cc1ccc(-c2cc(C(=O)NCCN3CCC(C)CC3)c(C)[nH]2)cc1C [C00003],,,,213 µM,7 µM,64 µM,"EC50 [3, 8]: 176 µM"
C#CCn1c(-c2ccc(C)c(C)c2)cc(C(=O)NCCCN2CCC(C)CC2)c1C [Compound 16],,5 µM,39 µM,,,,
CCc1[nH]c(-c2ccc(C)c(C)c2)cc1C(=O)NCCCN1CCC(C)CC1 [Compound 9],,103 µM,35 µM,,,,
Cc1ccc(-c2cc(C(=O)NCCCN3CCCCCC3)c(C)[nH]2)cc1C [C00016],,,,104 µM,2 µM,40 µM,"EC50 [3, 8]: 43 µM"
Cc1ccc(-c2cc(C(=O)NCCCN3CCCCC3)c(C)[nH]2)cc1C [C00015],,,,267 µM,10 µM,193 µM,"EC50 [3, 8]: 244 µM"
Cc1ccc(-c2cc(C(=O)NCCCN3CCC(C)CC3)c(C)n2-c2ccccc2)cc1C [Compound 18],,3 µM,489 µM,,,,
Cc1ccc(-c2cc(C(=O)NCCC3=CCCCC3)c(C)[nH]2)cc1C [C00006],,,,,> 100 µM,,"EC50 in whole cells, C. sporogenes (TMA inhibition) [2]: No inhibition at 100"
Cc1ccc(-c2cc(C(=O)NCCCN3CCC(C)CC3)cn2C)cc1C [Compound 15],98 µM,,21 µM,,,,

Compound,EC50 [1],EC50 [2],EC50 (E. coli MS 200-1; [4]),"EC50 [2, 5]",EC50 (E. coli MS 200-1; [6]),"EC50 [1, 7]",also measured
Cc1ccc(-c2cc(C(=O)NCCCN3CCC(C)CC3)c(C)[nH]2)cc1C [C00002],,,,,9 µM,,
CCCNCCNC(=O)c1cc(-c2ccc(C)c(C)c2)[nH]c1C [C00009],,,,> 312 µM,60 µM,> 312 µM,
Cc1cc(C)cc(-c2cc(C(=O)NCCCN3CCC(C)CC3)c(C)[nH]2)c1 [Compound 25],28 µM,133 µM,6 µM,,,,EC50 [3]: 19 µM
Cc1ccc(-c2cc(C(=O)NCCCCCN3CCC(C)CC3)c(C)[nH]2)cc1C [C00005],,,,84 µM,11 µM,66 µM,"EC50 [3, 8]: 33 µM"
Cc1ccc(-c2cc(C(=O)NCCCCN3CCC(C)CC3)c(C)[nH]2)cc1C [C00004],,,,138 µM,5 µM,35 µM,"EC50 [3, 8]: 27 µM"
Cc1ccc(-c2cc(C(=O)NCCCCN3CCCCCC3)c(C)[nH]2)cc1C [C00018],,,,68 µM,8 µM,33 µM,"EC50 [3, 8]: 7 µM"
Cc1[nH]c(-c2ccccc2)cc1C(=O)NCCCN1CCC(C)CC1 [Compound 22],157 µM,147 µM,7 µM,,,,EC50 [3]: 24 µM
CCCN(CCC)CCNC(=O)c1cc(-c2ccc(C)c(C)c2)[nH]c1C [C00010],,,,> 312 µM,200 µM,> 312 µM,
Cc1ccc(-c2cc(C(=O)NCCN)c(C)[nH]2)cc1C [C00008],,,,,140 µM,,"EC50 in whole cells, P. mirabilis (TMA inhibition) [1]: No inhibition at 312; EC50 in whole cells, C. sporogenes (TMA inhibition) [2]: No inhibition at 312"
Cc1ccc(-c2cc(C(=O)NCCCN3CCC(C)CC3)c(C)o2)cc1C [Compound 12],> 312 µM,,15 µM,,,,EC50 [3]: 54 µM
Cc1ccc(-c2ncc(C(=O)NCCCN3CCC(C)CC3)s2)cc1C [Compound 14],197 µM,215 µM,27 µM,,,,
Cc1ccc(-c2cc(C(=O)NCCCCCN3CCCCCC3)c(C)[nH]2)cc1C [C00019],,,,,2 µM,,
Cc1ccc(-c2cc(C(=O)NCCCN3CCOCC3)c(C)[nH]2)cc1C [C00011],,,,,> 125 µM,,"EC50 in whole cells, P. mirabilis (TMA inhibition) [1]: No inhibition at 312; EC50 in whole cells, C. sporogenes (TMA inhibition) [2]: No inhibition at 312"
Cc1ccc(-c2cc(C(=O)NCCCN3CCCCCCC3)c(C)[nH]2)cc1C [C00017],,,,40 µM,3 µM,28 µM,"EC50 [3, 8]: 28 µM"
Cc1ccc(-c2cc(C(=O)NCCCN3CCC(C)CC3)cs2)cc1C [Compound 13],50 µM,85 µM,14 µM,,,,
Cc1ccc(-c2cc(C(=O)NCCCN3CCC(C)CC3)c(C)[nH]2)cc1 [Compound 24],131 µM,,92 µM,,,,
